Converted amounts (≈) assume the structure as drawn.
Key:
KB = test: Cytotoxicity against human KB cells; format: functional; details: read-out: ED50 (the source's name)
P388 = test: In vivo cytotoxicity against mouse P388 cells; format: functional

Structure (SMILES)	EC50 (KB) [µg/mL]	T/C (P388) [%]
CCOC(=O)CC1(O)C=CC(=O)C=C1	3.3 (≈ 16.8 µM)	–
COC(=O)CC1(O)C=CC(=O)C=C1 [JACARANONE]	2.1 (≈ 11.5 µM)	165

Reference: ChEMBL document CHEMBL1151394, “Cytotoxic agent from Senecio anonymus wood” (1982)
